Assay results from patent publication US20230310428A1, “EGFR INHIBITOR AND PREPARATION METHOD AND USE THEREOF” (HONGYUN BIOTECH CO., LTD., priority 2020, published 2023).
Like-named read-outs stand apart in the source and are kept apart here.

Legend:
Assay in all cases: Growth inhibitory activity of compounds on BaF3 cell lines stably transfected with kinase (MTS, 48 h)
Assay type in all cases: cell-based
[1] = target: T1, various mutants of kinase EGFR (BaF3 cell lines stably transfected with kinase) (Homo sapiens, UniProt P00533)
T1 construct: other: BaF3 cells stably transfected with EGFR Δ19Del; MTS, 48 h; other: BaF3 cell line stably transfected with EGFR Δ19Del
Method in brief: (§1)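 OD at 490 nm after 1-4 h MTS/PES incubation gave growth inhibition relative to 0.1% DMSO negative and cell-free medium blank. Compounds: 8-point 1/3 dilution from 10 µM, 48 h, 37 °C. IC50 from inhibition curves; duplicates.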

[2] = target: T2, various mutants of kinase EGFR (BaF3 cell lines stably transfected with kinase) (Homo sapiens, UniProt P00533, C797S/L858R/T790M)
T2 construct: expressed in transfected cells; host or cells: BaF3
Method in brief: as §1

[3] = target: T3, various mutants of kinase EGFR (BaF3 cell lines stably transfected with kinase) (Homo sapiens, UniProt P00533, L858R)
T3 construct: expressed in transfected cells; host or cells: BaF3
Method in brief: as §1

[4] = target: T4, various mutants of kinase EGFR (BaF3 cell lines stably transfected with kinase) (Homo sapiens, UniProt P00533, L858R/T790M)
T4 construct: expressed in transfected cells; host or cells: BaF3
Method in brief: as §1

[5] = target: T5, various mutants of kinase EGFR (BaF3 cell lines stably transfected with kinase) (Homo sapiens, UniProt P00533, T790M/C797S, form not given)
T5 construct: other: BaF3 cells stably transfected with EGFR Δ19Del/T790M/C797S; MTS, 48; other: BaF3 cell line stably transfected with EGFR Δ19Del/T790M/C7
Method in brief: as §1

[6] = target: T6, various mutants of kinase EGFR (BaF3 cell lines stably transfected with kinase) (Homo sapiens, UniProt P00533, T790M, form not given)
T6 construct: other: BaF3 cells stably transfected with EGFR Δ19Del/T790M; MTS, 48 h; other: BaF3 cell line stably transfected with EGFR Δ19Del/T790M; MTS, 48
Method in brief: as §1

[7] = BaF3 cells stably transfected with EGFR Δ19Del, read-out: IC50, growth inhibition, Δ19Del
[8] = BaF3 cells stably transfected with EGFR L858R/T790M/C797S, read-out: IC50, growth inhibition, L858R/T790M/C797S
[9] = BaF3 cells stably transfected with EGFR L858R, read-out: IC50, growth inhibition, L858R
[10] = BaF3 cells stably transfected with EGFR L858R/T790M, read-out: IC50, growth inhibition, L858R/T790M
[11] = BaF3 cells stably transfected with EGFR Δ19Del/T790M/C797S, read-out: IC50, growth inhibition, Δ19Del/T790M/C797S
[12] = BaF3 cells stably transfected with EGFR Δ19Del/T790M, read-out: IC50, growth inhibition, Δ19Del/T790M
[13] = BaF3 cell line stably transfected with EGFR Δ19Del, read-out: Δ19Del growth inhibitory activity IC50
[14] = BaF3 cell line stably transfected with EGFR L858R/T790M/C797S, read-out: L858R/T790M/ C797S growth inhibitory activity IC50
[15] = BaF3 cell line stably transfected with EGFR L858R, read-out: L858R growth inhibitory activity IC50
[16] = BaF3 cell line stably transfected with EGFR L858R/T790M, read-out: L858R/ T790M growth inhibitory activity IC50
[17] = BaF3 cell line stably transfected with EGFR Δ19Del/T790M/C797S, read-out: Δ19Del/T790M/ C797S growth inhibitory activity IC50
[18] = BaF3 cell line stably transfected with EGFR Δ19Del/T790M, read-out: Δ19Del/ T790M growth inhibitory activity IC50

T3 sequence (P00533 25-1210 L858R): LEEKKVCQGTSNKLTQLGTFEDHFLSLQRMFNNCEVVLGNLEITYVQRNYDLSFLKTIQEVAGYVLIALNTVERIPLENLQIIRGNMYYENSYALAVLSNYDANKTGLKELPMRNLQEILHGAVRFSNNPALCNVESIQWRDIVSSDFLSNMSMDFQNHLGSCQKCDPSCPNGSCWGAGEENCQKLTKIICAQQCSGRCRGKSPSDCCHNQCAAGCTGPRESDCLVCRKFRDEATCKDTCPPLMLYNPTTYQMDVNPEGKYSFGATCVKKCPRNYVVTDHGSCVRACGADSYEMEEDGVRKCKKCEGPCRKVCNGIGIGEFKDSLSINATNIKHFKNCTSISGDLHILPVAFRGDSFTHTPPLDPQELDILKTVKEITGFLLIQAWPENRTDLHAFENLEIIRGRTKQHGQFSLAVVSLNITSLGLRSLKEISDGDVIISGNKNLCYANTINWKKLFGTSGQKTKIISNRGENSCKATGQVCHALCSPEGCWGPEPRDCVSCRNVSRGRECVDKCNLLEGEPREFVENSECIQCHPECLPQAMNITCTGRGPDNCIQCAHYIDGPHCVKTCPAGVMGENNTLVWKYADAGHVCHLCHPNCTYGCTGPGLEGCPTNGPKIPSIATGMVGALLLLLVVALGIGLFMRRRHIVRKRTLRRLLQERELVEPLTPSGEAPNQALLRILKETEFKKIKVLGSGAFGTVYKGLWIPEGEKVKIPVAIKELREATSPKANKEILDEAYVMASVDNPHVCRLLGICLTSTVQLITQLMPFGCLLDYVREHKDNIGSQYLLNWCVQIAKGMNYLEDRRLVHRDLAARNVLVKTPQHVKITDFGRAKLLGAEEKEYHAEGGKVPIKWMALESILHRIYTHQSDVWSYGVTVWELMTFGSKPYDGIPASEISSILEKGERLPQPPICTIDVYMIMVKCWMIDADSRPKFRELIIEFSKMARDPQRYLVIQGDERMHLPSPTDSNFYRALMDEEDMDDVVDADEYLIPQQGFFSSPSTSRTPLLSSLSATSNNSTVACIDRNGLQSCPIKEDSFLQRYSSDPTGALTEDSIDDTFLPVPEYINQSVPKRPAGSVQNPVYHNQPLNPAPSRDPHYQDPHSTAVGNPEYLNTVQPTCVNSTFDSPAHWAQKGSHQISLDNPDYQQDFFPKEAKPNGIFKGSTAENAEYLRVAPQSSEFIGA
T4 sequence (P00533 25-1210 T790M/L858R): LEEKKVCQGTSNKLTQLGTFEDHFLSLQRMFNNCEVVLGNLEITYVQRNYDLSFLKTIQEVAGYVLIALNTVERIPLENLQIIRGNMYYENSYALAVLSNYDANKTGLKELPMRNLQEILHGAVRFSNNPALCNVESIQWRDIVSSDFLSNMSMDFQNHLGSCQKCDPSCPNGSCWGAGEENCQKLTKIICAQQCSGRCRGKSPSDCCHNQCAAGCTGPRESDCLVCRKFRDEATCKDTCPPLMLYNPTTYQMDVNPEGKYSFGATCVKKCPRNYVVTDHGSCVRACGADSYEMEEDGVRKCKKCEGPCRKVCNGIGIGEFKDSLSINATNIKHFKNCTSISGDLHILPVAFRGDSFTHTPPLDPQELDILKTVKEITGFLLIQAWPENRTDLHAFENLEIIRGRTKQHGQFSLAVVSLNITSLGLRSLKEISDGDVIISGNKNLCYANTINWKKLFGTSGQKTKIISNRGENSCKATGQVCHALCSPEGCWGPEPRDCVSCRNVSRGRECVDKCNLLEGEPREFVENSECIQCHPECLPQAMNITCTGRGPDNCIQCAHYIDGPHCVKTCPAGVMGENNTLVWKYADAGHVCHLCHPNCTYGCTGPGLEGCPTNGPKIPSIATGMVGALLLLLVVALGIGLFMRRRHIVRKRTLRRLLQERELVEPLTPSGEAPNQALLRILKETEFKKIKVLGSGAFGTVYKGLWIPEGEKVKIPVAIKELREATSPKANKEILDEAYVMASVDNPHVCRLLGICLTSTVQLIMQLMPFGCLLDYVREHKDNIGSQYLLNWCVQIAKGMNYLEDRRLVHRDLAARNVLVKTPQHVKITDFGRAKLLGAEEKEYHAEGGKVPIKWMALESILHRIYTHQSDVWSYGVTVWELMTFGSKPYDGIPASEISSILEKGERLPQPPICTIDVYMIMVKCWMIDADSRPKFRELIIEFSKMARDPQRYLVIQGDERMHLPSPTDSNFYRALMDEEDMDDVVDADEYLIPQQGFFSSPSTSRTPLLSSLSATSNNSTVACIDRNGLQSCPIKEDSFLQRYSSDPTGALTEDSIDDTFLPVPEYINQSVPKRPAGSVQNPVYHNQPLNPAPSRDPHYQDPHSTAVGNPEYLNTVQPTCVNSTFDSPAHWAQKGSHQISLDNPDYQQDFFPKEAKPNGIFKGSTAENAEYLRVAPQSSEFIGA
T5 sequence (P00533 with tags, fused parts or gaps DEL746-750/T790M/C797S, form open): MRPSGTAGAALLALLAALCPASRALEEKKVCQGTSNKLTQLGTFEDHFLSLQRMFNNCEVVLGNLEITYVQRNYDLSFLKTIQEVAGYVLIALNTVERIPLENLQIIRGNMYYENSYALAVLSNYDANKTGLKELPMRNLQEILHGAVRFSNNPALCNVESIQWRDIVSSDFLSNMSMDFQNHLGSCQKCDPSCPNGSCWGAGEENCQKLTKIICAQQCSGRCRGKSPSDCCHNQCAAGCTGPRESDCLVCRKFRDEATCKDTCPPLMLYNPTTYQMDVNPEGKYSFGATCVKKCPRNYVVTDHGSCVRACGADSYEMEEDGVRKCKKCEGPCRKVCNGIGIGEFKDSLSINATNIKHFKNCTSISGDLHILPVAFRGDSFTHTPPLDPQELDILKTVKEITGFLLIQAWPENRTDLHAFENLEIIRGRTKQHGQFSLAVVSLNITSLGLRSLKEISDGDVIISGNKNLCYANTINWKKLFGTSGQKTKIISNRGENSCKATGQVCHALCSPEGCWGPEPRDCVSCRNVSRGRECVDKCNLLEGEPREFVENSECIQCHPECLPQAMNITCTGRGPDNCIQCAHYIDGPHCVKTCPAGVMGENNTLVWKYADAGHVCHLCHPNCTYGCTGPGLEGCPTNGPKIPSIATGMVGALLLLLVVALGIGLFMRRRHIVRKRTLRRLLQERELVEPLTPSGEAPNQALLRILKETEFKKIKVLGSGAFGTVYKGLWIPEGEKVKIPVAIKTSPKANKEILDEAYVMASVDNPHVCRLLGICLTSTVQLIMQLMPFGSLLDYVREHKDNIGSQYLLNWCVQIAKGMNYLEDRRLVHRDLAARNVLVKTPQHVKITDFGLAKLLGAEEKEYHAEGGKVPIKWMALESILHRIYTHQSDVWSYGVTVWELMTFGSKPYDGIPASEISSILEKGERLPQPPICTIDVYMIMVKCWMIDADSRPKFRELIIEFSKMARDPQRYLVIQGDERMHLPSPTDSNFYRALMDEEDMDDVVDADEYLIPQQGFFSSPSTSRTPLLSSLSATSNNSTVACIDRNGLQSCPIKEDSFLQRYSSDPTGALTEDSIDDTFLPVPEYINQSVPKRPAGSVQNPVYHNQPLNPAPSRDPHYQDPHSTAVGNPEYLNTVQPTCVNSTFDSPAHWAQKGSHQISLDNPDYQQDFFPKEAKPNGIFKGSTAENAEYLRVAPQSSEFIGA
T2 sequence (P00533 25-1210 T790M/C797S/L858R): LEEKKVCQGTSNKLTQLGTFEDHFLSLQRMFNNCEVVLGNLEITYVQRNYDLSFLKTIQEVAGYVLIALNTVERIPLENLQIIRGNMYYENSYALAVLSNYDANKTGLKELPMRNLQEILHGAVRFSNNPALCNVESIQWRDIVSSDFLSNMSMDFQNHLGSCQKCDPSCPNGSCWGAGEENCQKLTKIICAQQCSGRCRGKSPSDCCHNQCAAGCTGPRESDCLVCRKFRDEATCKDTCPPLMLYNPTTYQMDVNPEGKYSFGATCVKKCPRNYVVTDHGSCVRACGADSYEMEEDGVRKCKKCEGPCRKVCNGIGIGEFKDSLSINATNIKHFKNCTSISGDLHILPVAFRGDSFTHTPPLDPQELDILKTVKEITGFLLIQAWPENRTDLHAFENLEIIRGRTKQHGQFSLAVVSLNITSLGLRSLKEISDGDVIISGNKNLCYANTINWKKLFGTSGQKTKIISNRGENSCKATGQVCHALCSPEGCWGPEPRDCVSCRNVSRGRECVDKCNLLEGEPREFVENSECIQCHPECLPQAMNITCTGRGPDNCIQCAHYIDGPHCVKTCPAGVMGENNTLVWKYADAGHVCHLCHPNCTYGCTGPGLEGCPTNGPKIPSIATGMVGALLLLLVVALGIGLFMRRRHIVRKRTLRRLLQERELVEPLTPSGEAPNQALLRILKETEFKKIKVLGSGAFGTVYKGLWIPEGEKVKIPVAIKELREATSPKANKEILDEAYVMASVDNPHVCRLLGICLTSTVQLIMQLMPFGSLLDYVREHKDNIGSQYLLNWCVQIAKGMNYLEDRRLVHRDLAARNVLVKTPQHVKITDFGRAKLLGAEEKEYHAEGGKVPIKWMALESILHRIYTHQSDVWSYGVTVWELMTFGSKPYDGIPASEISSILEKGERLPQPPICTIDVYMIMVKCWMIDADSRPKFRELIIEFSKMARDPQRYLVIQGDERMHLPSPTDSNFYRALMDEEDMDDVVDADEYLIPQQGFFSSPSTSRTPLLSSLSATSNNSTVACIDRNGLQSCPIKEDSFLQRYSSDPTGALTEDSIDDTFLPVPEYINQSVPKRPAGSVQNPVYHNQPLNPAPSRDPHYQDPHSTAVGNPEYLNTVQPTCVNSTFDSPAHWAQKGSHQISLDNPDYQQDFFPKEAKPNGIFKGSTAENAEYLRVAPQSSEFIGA

Row | IC50 [1, 7] [nM] | IC50 [2, 8] [nM] | IC50 [3, 9] [nM] | IC50 [4, 10] [nM] | IC50 [5, 11] [nM] | IC50 [6, 12] [nM] | IC50 [1, 13] [nM] | IC50 [2, 14] [nM] | IC50 [3, 15] [nM] | IC50 [4, 16] [nM] | IC50 [5, 17] [nM] | IC50 [6, 18] [nM] | SMILES
1 | 50 to 500 | 50 to 500 | 50 to 500 | 50 to 500 | ≤ 50 | 50 to 500 | – | – | – | – | – | – | COc1cc(N2CCN(C)CC2)c(C)cc1Nc1ncc([N+](=O)[O-])c(Nc2ccc3nccnc3c2N(C)S(C)(=O)=O)n1 [Compound I-194]
2 | 500 to 2500 | 50 to 500 | 500 to 2500 | 50 to 500 | 50 to 500 | 500 to 2500 | – | – | – | – | – | – | COc1cc(N2CCC(N3CCN(C)CC3)CC2)ccc1Nc1ncc(Br)c(Nc2ccc3nccnc3c2N(C)S(=O)(=O)C(F)(F)F)n1 [Compound I-256]
3 | 500 to 2500 | 50 to 500 | 500 to 2500 | 500 to 2500 | 50 to 500 | 50 to 500 | – | – | – | – | – | – | CCc1cc(Nc2ncc(Cl)c(Nc3ccc4nccnc4c3N(C)S(=O)(=O)C(F)(F)F)n2)c(OC(F)(F)F)cc1N1CCC(N2CCN(C)CC2)CC1 [Compound I-131]
4 | 500 to 2500 | 50 to 500 | 500 to 2500 | 50 to 500 | ≤ 50 | 50 to 500 | – | – | – | – | – | – | CCc1cc(Nc2ncc(Br)c(Nc3ccc4nccnc4c3N(C)S(=O)(=O)C(F)(F)F)n2)c(OC)nc1N1CCC(N2CCN(C)CC2)CC1 [Compound I-257]
5 | 500 to 2500 | 50 to 500 | 500 to 2500 | 50 to 500 | 50 to 500 | 50 to 500 | – | – | – | – | – | – | C=Cc1cc(Nc2ncc([N+](=O)[O-])c(Nc3ccc4nccnc4c3N(C)S(C)(=O)=O)n2)c(OC(F)(F)F)cc1N1CCC(N2CCN(C)CC2)CC1 [Compound I-290]
6 | 500 to 2500 | 50 to 500 | 500 to 2500 | 500 to 2500 | 50 to 500 | 50 to 500 | – | – | – | – | – | – | C=Cc1cc(Nc2ncc(Cl)c(Nc3ccc4nccnc4c3N(C)S(=O)(=O)C(F)(F)F)n2)c(OC(F)(F)F)cc1N1CCC(N2CCN(C)CC2)CC1 [Compound I-263]
7 | – | – | – | – | – | – | 500 to 2500 | 500 to 2500 | 500 to 2500 | 500 to 2500 | 500 to 2500 | 500 to 2500 | CCc1cc(Nc2nc(Nc3ccc4nccnc4c3N(C)S(C)(=O)=O)c3ccsc3n2)c(OC(F)(F)F)cc1N1CCC(N2CCN(C)CC2)CC1 [II-2-4]

Continued, molecule first:

Row | SMILES | IC50 [1, 7] [nM] | IC50 [2, 8] [nM] | IC50 [3, 9] [nM] | IC50 [4, 10] [nM] | IC50 [5, 11] [nM] | IC50 [6, 12] [nM] | IC50 [1, 13] [nM] | IC50 [2, 14] [nM] | IC50 [3, 15] [nM] | IC50 [4, 16] [nM] | IC50 [5, 17] [nM] | IC50 [6, 18] [nM]
8 | CCc1cc(Nc2ncc(C)c(Nc3ccc4nccnc4c3N(C)S(C)(=O)=O)n2)c(OC)cc1N1CCN(C)CC1 [Compound I-315] | – | – | – | – | – | – | ≤ 50 | ≤ 50 | ≤ 50 | ≤ 50 | ≤ 50 | ≤ 50
9 | COc1cc(N2CCC(N3CCN(C)CC3)CC2)c(CC2CC2)cc1Nc1ncc(F)c(Nc2ccc3nccnc3c2N(C)S(=O)(=O)C2CC2)n1 [Compound I-251] | 50 to 500 | 500 to 2500 | 50 to 500 | 50 to 500 | 50 to 500 | 500 to 2500 | – | – | – | – | – | –
10 | COc1ccc(N2CCC(O)CC2)cc1Nc1ncc(F)c(Nc2ccc3nccnc3c2N(C)S(=O)(=O)C2CC2)n1 [Compound I-373] | – | – | – | – | – | – | 500 to 2500 | 500 to 2500 | 50 to 500 | 500 to 2500 | 50 to 500 | 500 to 2500
11 | COc1cc(N2CCC(N(C)C)CC2)c(C)cc1Nc1nc(Nc2ccc3nccnc3c2N(C)S(C)(=O)=O)c2sccc2n1 [II-1-13] | – | – | – | – | – | – | 500 to 2500 | 50 to 500 | 500 to 2500 | 50 to 500 | ≤ 50 | 50 to 500
12 | CCc1cc(Nc2ncc(CC)c(Nc3ccc4nccnc4c3N(C)S(C)(=O)=O)n2)c(OC)cc1N1CCC(N(C)C)C1 (stereo not drawn) [Compound I-324] | – | – | – | – | – | – | ≤ 50 | ≤ 50 | ≤ 50 | ≤ 50 | ≤ 50 | ≤ 50
13 | CN(c1c(Nc2nc(Nc3cccc(N4CCC(O)CC4)c3)ncc2Br)ccc2nccnc12)S(C)(=O)=O [Compound I-76] | 50 to 500 | ≤ 50 | 500 to 2500 | ≤ 50 | 50 to 500 | 50 to 500 | – | – | – | – | – | –
